US7271260B2, “3,4-dihydroquinazoline derivatives as T-type calcium channel blockers and method of preparing the same” (Korea Institute of Science and Technology, priority 2004, dated 2007)
Read-outs that look alike come from different tables or passages of the source.

Assays:
[1] = molecular target: T1, T-type calcium channel α1H (Cav3.2) (Homo sapiens, UniProt O95180); assay: Two-electrode voltage clamp on Xenopus unfertilized oocytes expressing α1H T-type calcium channel; assay type: cell-based; conditions: test potential -20 mV from -90 mV, read-out: inhibitory effect (blocking percentage), Xenopus oocyte (α1H) at 100 μM
T1 construct: expressed in transfected cells; host or cells: Xenopus laevis unfertilized oocytes injected with cRNA (pGEM-HEA linearised with AflII, T7 transcription)
Experimental: In order to express a gene encoding T-type calcium channel α1H (Cav3.2) (Cribbs, L. L. et al., Circ. Res., 1998, 83, 103-109) in unfertilized Xenopus oocytes, pGEM-HEA was treated with restriction enzyme AflII to obtain a DNA fragment containing 5′-terminal region having the T-type calcium channel cDNA (AF051946). cRNA having a corresponding sequence to that of the fragment was synthesized using T7 RNA polymerase according to the manufacturer's instructions (mMESSAGE mMACHINE kit, Ambion, Austin, U.S.A.). The synthesized cRNA was quantified by measuring the O.D. value with a spectrophotometer. At this time, unfertilized oocytes were prepared from female Xenopus laevis (Xenopus I, U.S.A.) according to the following method. After the frog's abdomen was incised by about 1 cm, three to four lobes were detached therefrom with scissors and separated into small pieces to which several oocytes were attached. The small pieces were hydrolyzed in OR solution (82.5 mM NaCl, 2.5 mM KCl, 1 mM MgCl2, 5 mM HEPES, pH 7.6) and supplemented with collagenase type IA (Sigma, U.S.A.) to remove defolliculation. After selecting healthy oocytes with a dissecting microscope, they were soaked in SOS solution (100 mM NaCl, 2 mM KCl, 1.8 mM CaCl2, 1 mM MgCl2, 5 mM HEPES, 2.5 mM pyruvate, […] gentamicin, pH 7.6) for 3 to 4 hours to revitalize them. 2 to 5 ng of cRNA was injected into each oocyte using Nano-injector. The oocytes were subjected to a test in order to examine the electrical properties of the channel expressed therefrom 4 to 5 days after the injection while being maintained at 18° C.
The current of the calcium channel expressed from the Xenopus unfertilized oocytes was measured according to a two-electrode voltage clamping method. The current was measured in 10 mM Ba^2+ solution (10 mM Ba(OH)2, 90 mM NaOH, 1 mM KCl, 0.1 mM EDTA, 5 mM HEPES, pH was adjusted to 7.4 with methanesulfonic acid). At this time, the voltage clamp and current measurement were regulated with an amplifier for unfertilized oocytes (Model OC-725C, Warner Instrument Corp., U.S.A.), and analog signals were converted into digital signals using Digidata 2000A (Analog-Digital converter, Axon Instrument). The acquisition, storage and analysis of all data were recorded in Pentium IV computer via pCLAMP8. The data were mainly collected at 5 KHz and filtered at 1 KHz (Model 902 filter; Frequency devices located at Harverhill, Mass., U.S.A.). The T-type current was generated by imposing test electric potential of −20 mV every 15 seconds on the unfertilized oocytes, the potential of which was fixed at −90 mV. A blocking percentage was calculated by comparing the […] before and after the drug treatment.

[2] = molecular target: T2, α1G T-type calcium channel (Rattus norvegicus, UniProt O54898); assay: Whole cell patch clamp on HEK 293 cells expressing α1G T-type calcium channel; assay type: cell-based; conditions: for inhibition at 10 µM: HEK293; for channel inhibitory effect relative to Mibefradil (comparing IC50 values): HEK 293 cells (α1G), IC50 compared with Mibefradil; for IC50: read-out: IC50, HEK293 cells (α1G)
T2 construct: expressed in transfected cells; Perez-Reyes, University of Virginia
Experimental: HEK 293 cells were cultured in Dulbecco's modified Eagle's medium (DMEM) supplemented with 10% fetal bovine serum (FBS) and 1% penicillin/streptomycin (v/v) in 36.5° C. humidified incubator (95% air-5% CO2). The culture solution was replaced with a fresh medium every 3 to 4 days and the cultured cells were subjected to sub-culture every week. At this time, the culture solution was treated with G-418 (0.5 mg/ml) solution so that only HEK 293 cells expressing α1G T-type calcium channel can grow. The cells used for the T-type calcium channel activity assay were cultured on a cover slip coated with poly-L-lysine (0.5 mg/ml) whenever sub-cultured and their calcium channel activity was recorded 2 to 7 days after the cultivation. The current of the T-type calcium channel at a single cell level was measured according to an electrophysiological whole cell patch clamping method using EPC-9 amplifier (HEKA, German). At this time, a cell exterior solution [140 mM NaCl, 2 mM CaCl2, 10 mM HEPES (pH 7.4)] and a cell interior solution [KCl 130 mM, HEPES 10 mM, EGTA 11 mM, MgATP 5 mM (pH 7.4)] were employed. The inward current caused by the T-type calcium channel activation was measured according to a T-type calcium channel protocol activated at low current. Such current occurs when the cells were converted into a whole-cell recording mode by stabbing a microglass electrode having 3-4 MΩ resistance, which was filled with the cell interior solution into a single cell and depolarized at −30 mV (50 ms duration period) every 10 seconds with fixing membrane potential to −100 mV.
In order to confirm whether the cells and methods used in Test Example 2 are a suitable screening system for selecting T-type calcium channel blockers, the results obtained in Example 2 were compared with those of α1G T-type calcium channel study reported in a public document (Monteil, A. et al., J. Biol. Chem. 275, 6090-6100, 2000). […] Thus, the candidate compounds were subjected to a test for their inhibitory effects on the T-type calcium channel according to the screening system of the present invention, as follows. Each compound was dissolved in 100% dimethylsulfoxide (DMSO) to prepare 10 mM stock solution. The inhibitory effect on the T-type calcium channel current was examined in 10 μM sample solution (containing 0.1% DMSO) prepared by diluting the stock solution by 1000-fold. The cells were treated with each compound at a concentration of 10 μM for 30 to 60 sec with the cell exterior solution.

[3] = HEK 293 cells expressing α1G, 30 to 60 sec treatment, read-out: inhibitory effect on peak current, HEK293 cells (α1G) at 10 μM
[4] = Table 3 title says MPG neuron, values equal HEK 293 (α1G) values of Table 2, read-out: Inhibitory effect, Ca2+ channel T-type (LVA)

T2 sequence (O54898 whole entry): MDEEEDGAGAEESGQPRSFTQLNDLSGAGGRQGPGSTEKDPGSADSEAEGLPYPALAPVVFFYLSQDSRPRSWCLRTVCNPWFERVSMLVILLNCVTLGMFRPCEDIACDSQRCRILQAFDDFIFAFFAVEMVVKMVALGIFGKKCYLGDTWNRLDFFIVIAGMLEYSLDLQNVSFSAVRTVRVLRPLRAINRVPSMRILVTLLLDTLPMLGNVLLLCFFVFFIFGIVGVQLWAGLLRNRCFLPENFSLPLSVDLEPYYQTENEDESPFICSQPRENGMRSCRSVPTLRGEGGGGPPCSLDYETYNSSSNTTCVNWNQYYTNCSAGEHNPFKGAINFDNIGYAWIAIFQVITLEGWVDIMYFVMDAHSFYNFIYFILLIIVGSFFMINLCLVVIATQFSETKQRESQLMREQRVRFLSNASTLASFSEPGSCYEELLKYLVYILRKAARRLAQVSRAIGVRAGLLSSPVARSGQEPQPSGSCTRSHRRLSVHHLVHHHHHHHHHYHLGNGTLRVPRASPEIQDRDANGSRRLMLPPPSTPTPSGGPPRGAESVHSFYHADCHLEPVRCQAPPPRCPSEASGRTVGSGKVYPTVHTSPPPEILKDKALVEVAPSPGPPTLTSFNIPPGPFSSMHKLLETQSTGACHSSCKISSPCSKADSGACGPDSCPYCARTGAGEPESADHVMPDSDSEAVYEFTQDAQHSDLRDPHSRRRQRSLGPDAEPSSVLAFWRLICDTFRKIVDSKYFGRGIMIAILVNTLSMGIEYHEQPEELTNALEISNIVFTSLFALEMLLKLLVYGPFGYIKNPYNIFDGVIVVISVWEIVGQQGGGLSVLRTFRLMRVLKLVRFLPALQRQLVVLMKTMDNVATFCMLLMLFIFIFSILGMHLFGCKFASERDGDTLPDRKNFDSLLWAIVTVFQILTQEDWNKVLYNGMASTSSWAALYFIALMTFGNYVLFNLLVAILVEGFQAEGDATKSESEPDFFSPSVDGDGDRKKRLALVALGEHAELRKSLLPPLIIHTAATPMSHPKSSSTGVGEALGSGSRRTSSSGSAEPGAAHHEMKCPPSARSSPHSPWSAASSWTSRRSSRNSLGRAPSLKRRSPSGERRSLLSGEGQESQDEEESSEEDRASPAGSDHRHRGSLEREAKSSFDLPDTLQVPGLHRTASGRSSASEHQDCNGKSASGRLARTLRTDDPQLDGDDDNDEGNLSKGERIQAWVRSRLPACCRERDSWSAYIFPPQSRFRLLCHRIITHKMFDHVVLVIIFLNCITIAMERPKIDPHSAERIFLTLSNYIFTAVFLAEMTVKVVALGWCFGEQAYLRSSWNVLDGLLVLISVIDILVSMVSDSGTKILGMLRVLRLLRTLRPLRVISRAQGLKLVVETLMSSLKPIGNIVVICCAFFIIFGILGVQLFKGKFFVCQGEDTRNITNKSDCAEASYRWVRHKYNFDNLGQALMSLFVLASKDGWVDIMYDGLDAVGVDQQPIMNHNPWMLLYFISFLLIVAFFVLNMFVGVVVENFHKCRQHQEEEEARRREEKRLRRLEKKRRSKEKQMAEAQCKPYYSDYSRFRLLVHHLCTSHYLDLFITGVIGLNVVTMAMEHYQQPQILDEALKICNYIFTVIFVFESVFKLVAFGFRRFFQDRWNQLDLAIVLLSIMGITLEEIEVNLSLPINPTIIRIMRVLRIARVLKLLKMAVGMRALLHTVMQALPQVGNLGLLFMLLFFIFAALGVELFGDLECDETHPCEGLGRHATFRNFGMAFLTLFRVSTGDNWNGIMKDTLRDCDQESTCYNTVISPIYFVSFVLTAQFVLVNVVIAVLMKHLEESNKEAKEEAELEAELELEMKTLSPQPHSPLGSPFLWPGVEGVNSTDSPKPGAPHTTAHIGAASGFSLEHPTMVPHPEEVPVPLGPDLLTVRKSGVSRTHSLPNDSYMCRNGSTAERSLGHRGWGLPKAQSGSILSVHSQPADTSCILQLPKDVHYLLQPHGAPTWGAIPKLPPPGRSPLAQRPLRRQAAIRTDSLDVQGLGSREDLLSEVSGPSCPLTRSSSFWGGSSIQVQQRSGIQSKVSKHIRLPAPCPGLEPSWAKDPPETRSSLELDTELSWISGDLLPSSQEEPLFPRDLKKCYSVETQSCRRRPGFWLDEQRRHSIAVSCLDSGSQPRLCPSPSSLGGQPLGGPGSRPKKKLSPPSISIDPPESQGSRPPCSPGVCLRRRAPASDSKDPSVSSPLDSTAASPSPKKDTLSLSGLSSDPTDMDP
T1 sequence (O95180 whole entry): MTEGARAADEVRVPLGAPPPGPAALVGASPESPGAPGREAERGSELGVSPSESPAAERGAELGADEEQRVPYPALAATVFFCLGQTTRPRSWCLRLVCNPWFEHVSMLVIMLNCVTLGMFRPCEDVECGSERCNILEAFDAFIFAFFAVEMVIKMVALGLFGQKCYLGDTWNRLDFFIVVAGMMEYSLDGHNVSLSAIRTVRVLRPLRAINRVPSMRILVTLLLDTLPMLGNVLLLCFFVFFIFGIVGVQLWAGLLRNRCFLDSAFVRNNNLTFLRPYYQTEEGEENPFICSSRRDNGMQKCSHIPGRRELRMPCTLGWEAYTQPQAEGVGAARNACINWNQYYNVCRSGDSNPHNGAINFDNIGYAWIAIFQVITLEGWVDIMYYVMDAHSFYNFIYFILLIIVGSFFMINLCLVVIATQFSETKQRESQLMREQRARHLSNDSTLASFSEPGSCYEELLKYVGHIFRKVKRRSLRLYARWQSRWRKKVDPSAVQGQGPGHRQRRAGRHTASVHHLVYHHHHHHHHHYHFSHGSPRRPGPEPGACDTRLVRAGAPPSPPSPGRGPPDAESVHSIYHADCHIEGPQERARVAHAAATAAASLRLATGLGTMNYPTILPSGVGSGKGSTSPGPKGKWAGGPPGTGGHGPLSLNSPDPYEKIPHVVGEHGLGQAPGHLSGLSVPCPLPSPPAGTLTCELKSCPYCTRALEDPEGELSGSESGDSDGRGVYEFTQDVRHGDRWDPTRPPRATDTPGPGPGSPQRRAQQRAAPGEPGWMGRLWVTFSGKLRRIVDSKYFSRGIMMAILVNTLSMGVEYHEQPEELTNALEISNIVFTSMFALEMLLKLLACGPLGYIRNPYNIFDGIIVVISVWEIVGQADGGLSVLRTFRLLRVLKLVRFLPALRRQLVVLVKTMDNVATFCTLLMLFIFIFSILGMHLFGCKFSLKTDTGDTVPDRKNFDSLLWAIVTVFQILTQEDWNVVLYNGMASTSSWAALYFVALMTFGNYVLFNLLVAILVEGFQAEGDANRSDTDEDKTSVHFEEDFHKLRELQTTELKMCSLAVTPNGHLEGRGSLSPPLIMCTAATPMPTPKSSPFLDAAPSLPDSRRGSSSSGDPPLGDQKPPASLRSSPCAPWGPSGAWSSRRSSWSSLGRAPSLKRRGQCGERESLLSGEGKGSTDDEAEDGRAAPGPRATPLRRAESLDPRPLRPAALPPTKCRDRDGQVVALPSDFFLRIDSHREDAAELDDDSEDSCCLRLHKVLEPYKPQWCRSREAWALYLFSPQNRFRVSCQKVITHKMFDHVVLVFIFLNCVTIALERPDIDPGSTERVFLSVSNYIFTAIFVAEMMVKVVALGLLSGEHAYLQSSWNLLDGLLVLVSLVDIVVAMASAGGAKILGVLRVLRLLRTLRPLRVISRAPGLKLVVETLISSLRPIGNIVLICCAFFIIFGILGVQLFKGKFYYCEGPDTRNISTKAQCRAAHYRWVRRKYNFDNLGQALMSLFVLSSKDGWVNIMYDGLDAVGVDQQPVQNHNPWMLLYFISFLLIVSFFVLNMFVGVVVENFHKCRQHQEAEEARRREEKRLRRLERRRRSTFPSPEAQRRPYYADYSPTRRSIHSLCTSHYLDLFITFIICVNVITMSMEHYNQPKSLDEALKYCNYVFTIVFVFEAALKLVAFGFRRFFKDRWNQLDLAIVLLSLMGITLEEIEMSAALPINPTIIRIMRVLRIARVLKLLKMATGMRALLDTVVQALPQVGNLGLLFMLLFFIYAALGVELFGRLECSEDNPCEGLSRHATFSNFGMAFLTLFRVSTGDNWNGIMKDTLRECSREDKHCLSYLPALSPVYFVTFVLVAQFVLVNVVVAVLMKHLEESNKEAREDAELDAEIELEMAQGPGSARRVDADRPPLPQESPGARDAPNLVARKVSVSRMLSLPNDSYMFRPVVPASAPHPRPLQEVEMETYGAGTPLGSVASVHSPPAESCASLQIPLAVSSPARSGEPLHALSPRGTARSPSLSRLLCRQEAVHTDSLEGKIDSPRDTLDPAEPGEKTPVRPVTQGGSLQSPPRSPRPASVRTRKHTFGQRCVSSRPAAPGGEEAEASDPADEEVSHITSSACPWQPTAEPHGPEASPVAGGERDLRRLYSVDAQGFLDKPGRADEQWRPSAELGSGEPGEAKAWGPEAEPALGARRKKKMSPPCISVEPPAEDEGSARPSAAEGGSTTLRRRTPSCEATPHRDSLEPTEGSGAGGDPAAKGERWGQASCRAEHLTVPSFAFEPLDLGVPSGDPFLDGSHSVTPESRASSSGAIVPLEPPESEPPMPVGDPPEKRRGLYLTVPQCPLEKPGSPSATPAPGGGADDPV

inhibition at 100 µM [1] [%] | inhibition at 10 µM [2, 3] [%] | inhibition at 10 µM [2, 4] [%] | channel inhibitory effect relative to Mibefradil (comparing IC50 values) [2] | IC50 ([2]; HEK 293 cells expressing α1G) [nM] | Structure (SMILES)
84.7 | 89.9 | 89.9 | about 3.4 fold | 250 | Cc1ccc(S(=O)(=O)Nc2ccc(CNC(=O)CC3c4ccccc4N=C(N4CCCCC4)N3c3ccccc3)cc2)cc1 (stereo not drawn) [KYS05041, 4-{N-[4-(4-methylbenzenesulfonylamido)benzyl]acetamido}-3-phenyl-2-(piperidine-1-yl)-3,4-dihydroquinazoline]
80.5 | 89 | 89 | ~4.2 fold | 200 | O=C(CC1c2ccccc2N=C(N2CCCCC2)N1c1ccccc1)NCc1ccc(NS(=O)(=O)c2ccc(F)cc2)cc1 (stereo not drawn) [KYS05042, 4-{N-[4-(4-fluorobenzenesulfonylamido)benzyl]acetamido}-3-phenyl-2-(piperidine-1-yl)-3,4-dihydroquinazoline]

Structure (SMILES) | inhibition at 100 µM [1] [%] | inhibition at 10 µM [2, 3] [%] | inhibition at 10 µM [2, 4] [%] | channel inhibitory effect relative to Mibefradil (comparing IC50 values) [2] | IC50 ([2]; HEK 293 cells expressing α1G) [nM]
O=C(CC1c2ccccc2N=C(N2CCCCC2)N1c1ccccc1)NCc1ccccc1 (stereo not drawn) [KYS05001] | 77 | 90.1 | 90.1 | almost the same calcium channel inhibitory effect as Mibefradil | 900
